What was measured:
Test in all cases: relative viability vs DMSO control (72 h) (fraction); higher = more viable cells
[1] = tested on: G401
Summary of the method: (§1)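 Sarcoma cell lines were grown in 384-well plates seeded toward 80–90% confluence and exposed 24 h later to serially diluted compound. After 72 h at 37 °C and 5% CO2, with 0.1% DMSO vehicle and a 5 µM positive control on the plates, ATPLite was read. Relative viability, given as percent growth averaged over up to triplicate wells, was rescaled so that 1 is full and 0 is none.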

[2] = tested on: SW872
Summary of the method: as §1

[3] = tested on: HT1080
Summary of the method: as §1

[4] = tested on: HS729
Summary of the method: as §1

[5] = tested on: RD-ES
Summary of the method: as §1

[6] = tested on: SK-ES-1
Summary of the method: as §1

[7] = tested on: SW982
Summary of the method: as §1

[8] = tested on: KHOS-NP
Summary of the method: as §1

[9] = tested on: SW684
Summary of the method: as §1

[10] = tested on: VA-ES-BJ
Summary of the method: as §1

[11] = tested on: SK-LMS-1
Summary of the method: as §1

[12] = tested on: A204
Summary of the method: as §1

Cc1nc(Nc2ncc(C(=O)Nc3c(C)cccc3Cl)s2)cc(N2CCN(CCO)CC2)n1 [Dasatinib]
Conditions | relative viability
[1], 0.00017 µM | 1
[1], 0.00051 µM | 0.996
[1], 0.00152 µM | 1.015
[1], 0.00457 µM | 1
[1], 0.01372 µM | 0.959
[1], 0.04115 µM | 0.876
[1], 0.1235 µM | 0.833
[1], 0.3704 µM | 0.789
[1], 1.111 µM | 0.7831
[1], 3.333 µM | 0.69
[1], 10 µM | 0.391
[2], 0.00017 µM | 1.03
[2], 0.00051 µM | 1.02
[2], 0.00152 µM | 1.01
[2], 0.00457 µM | 0.957
[2], 0.01372 µM | 0.86
[2], 0.04115 µM | 0.779
[2], 0.1235 µM | 0.639
[2], 0.3704 µM | 0.551
[2], 1.111 µM | 0.521
[2], 3.333 µM | 0.481
[2], 10 µM | 0.359
[3], 0.00017 µM | 1.03
[3], 0.00051 µM | 1.05
[3], 0.00152 µM | 1.04
[3], 0.00457 µM | 1.01
[3], 0.01372 µM | 1.02
[3], 0.04115 µM | 0.989
[3], 0.1235 µM | 0.924
[3], 0.3704 µM | 0.895
[3], 1.111 µM | 0.907
[3], 3.333 µM | 0.873
[3], 10 µM | 0.535
[4], 0.00017 µM | 0.947
[4], 0.00051 µM | 0.959
[4], 0.00152 µM | 0.95
[4], 0.00457 µM | 0.869
[4], 0.01372 µM | 0.796
[4], 0.04115 µM | 0.696
[4], 0.1235 µM | 0.633
[4], 0.3704 µM | 0.618
[4], 1.111 µM | 0.609
[4], 3.333 µM | 0.585
[4], 10 µM | 0.581
[5], 0.00017 µM | 0.989
[5], 0.00051 µM | 0.966
[5], 0.00152 µM | 0.966
[5], 0.00457 µM | 0.962
[5], 0.01372 µM | 0.958
[5], 0.04115 µM | 0.949
[5], 0.1235 µM | 0.9274
[5], 0.3704 µM | 0.918
[5], 1.111 µM | 0.92
[5], 3.333 µM | 0.759
[5], 10 µM | 0.483
[6], 0.00017 µM | 1.04
[6], 0.00051 µM | 1.03
[6], 0.00152 µM | 1.038
[6], 0.00457 µM | 1.05
[6], 0.01372 µM | 1.02
[6], 0.04115 µM | 0.975
[6], 0.1235 µM | 0.993
[6], 0.3704 µM | 0.934
[6], 1.111 µM | 0.896
[6], 3.333 µM | 0.673
[6], 10 µM | 0.402
[7], 0.00017 µM | 1.05
[7], 0.00051 µM | 1.04
[7], 0.00152 µM | 1.04
[7], 0.00457 µM | 0.99
[7], 0.01372 µM | 0.854
[7], 0.04115 µM | 0.641
[7], 0.1235 µM | 0.389
[7], 0.3704 µM | 0.277
[7], 1.111 µM | 0.259
[7], 3.333 µM | 0.258
[7], 10 µM | 0.218
[8], 0.00017 µM | 1.023
[8], 0.00051 µM | 1.03
[8], 0.00152 µM | 1
[8], 0.00457 µM | 0.993
[8], 0.01372 µM | 0.923
[8], 0.04115 µM | 0.872
[8], 0.1235 µM | 0.721
[8], 0.3704 µM | 0.525
[8], 1.111 µM | 0.436
[8], 3.333 µM | 0.327
[8], 10 µM | 0.237
[9], 0.00017 µM | 1.166
[9], 0.00051 µM | 1.15
[9], 0.00152 µM | 1.18
[9], 0.00457 µM | 1.18
[9], 0.01372 µM | 1.15
[9], 0.04115 µM | 1
[9], 0.1235 µM | 0.739
[9], 0.3704 µM | 0.625
[9], 1.111 µM | 0.6057
[9], 3.333 µM | 0.619
[9], 10 µM | 0.457
[10], 0.00017 µM | 1.04
[10], 0.00051 µM | 1.04
[10], 0.00152 µM | 1.04
[10], 0.00457 µM | 0.996
[10], 0.01372 µM | 0.856
[10], 0.04115 µM | 0.688
[10], 0.1235 µM | 0.502
[10], 0.3704 µM | 0.447
[10], 1.111 µM | 0.413
[10], 3.333 µM | 0.335
[10], 10 µM | 0.246
[11], 0.00017 µM | 1.03
[11], 0.00051 µM | 1.06
[11], 0.00152 µM | 1.09
[11], 0.00457 µM | 1.04
[11], 0.01372 µM | 1.03
[11], 0.04115 µM | 0.895
[11], 0.1235 µM | 0.722
[11], 0.3704 µM | 0.623
[11], 1.111 µM | 0.611
[11], 3.333 µM | 0.656
[11], 10 µM | 0.4228
[12], 0.00017 µM | 1.08
[12], 0.00051 µM | 1.04
[12], 0.00152 µM | 1.06
[12], 0.00457 µM | 1.02
[12], 0.01372 µM | 0.83
[12], 0.04115 µM | 0.501
[12], 0.1235 µM | 0.376
[12], 0.3704 µM | 0.356
[12], 1.111 µM | 0.356
[12], 3.333 µM | 0.314
[12], 10 µM | 0.281
